Assay results: patent publication US9439961B2, “Pharmaceutical composition for treating ischemic events” (Niigata University, priority 2009, dated 2016)

Tests used:
[1] = test system: cerebral infarction rat model; assay: Cerebral hemorrhage volume (hemoglobin concentration, spectrophotometer) in cerebral infarction rat model; format: in vivo, Sprague-Dawley rats; conditions: SU1498 20 mg/kg in DMSO single bolus with t-PA four hours after onset; 24 h after onset; vs t-PA and DMSO; P=0.005 (FIG. 5C)
From the text: In the present examples, a cerebral infarction rat model shown in FIG. 1B was produced in order to realize a state where cerebral hemorrhage concomitantly occurs as a result of administration of a thrombolytic agent after the therapeutic time window of the thrombolytic therapy. A thrombus was formed by coagulating rat's autologous blood and thrombin as a gel in a polyethylene tube catheter having a diameter of 0.35 mm (PE-50, product of Becton, Dickinson and Company). […] Thereafter, the thus-treated rat was measured for cerebral blood flow (CBF) using a laser Doppler flowmetry (AFL21, product of ADVANCE Co., Ltd., Tokyo) before and 30 min or 24 hours after injection of the thrombus. […]
The combined administration of the t-PA and the anti-VEGF antibody was performed as described in Example 2. The effects of the combined administration of the t-PA and the anti-VEGF antibody four hours after the onset of cerebral infarction induced by injection of the thrombus were evaluated by measuring the cerebral infarct volume, edema volume, cerebral hemorrhage volume, and motor function scale of the TTC-stained cerebral coronal section prepared 24 hours after the onset of cerebral infarction induced by injection of the thrombus. […]

[2] = test system: cerebral infarction rat model; assay: Motor function scale (5 grades) in cerebral infarction rat model; format: in vivo, Sprague-Dawley rats; conditions: 24 h after onset
[3] = test system: cerebral infarction rat model; assay: Cerebral infarction rat model (thrombus injection): infarct and edema volume of TTC-stained cerebral coronal section; format: in vivo, Sprague-Dawley rats
From the text: Sprague-Dawley rats (male, 8 weeks old, obtained from Charles River Laboratories Japan, Inc.) were used to produce cerebral infarction rat models.
In the present examples, a cerebral infarction rat model shown in FIG. 1B was produced in order to realize a state where cerebral hemorrhage concomitantly occurs as a result of administration of a thrombolytic agent after the therapeutic time window of the thrombolytic therapy. A thrombus was formed by coagulating rat's autologous blood and thrombin as a gel in a polyethylene tube catheter having a diameter of 0.35 mm (PE-50, product of Becton, Dickinson and Company). The formed thrombus was left to stand overnight and then cut to have a length of 1 mm Using the catheter, the thrombus was injected from the external carotid artery (ECA) 1 to the middle cerebral artery (MCA) 2 of the rat under anesthesia with halothane at 1% by mass to 1.5% by mass. Thereafter, the thus-treated rat was measured for cerebral blood flow (CBF) using a laser Doppler flowmetry (AFL21, product of ADVANCE Co., Ltd., Tokyo) before and 30 min or 24 hours after injection of the thrombus.
In the thrombolytic therapy for the cerebral infarction rat models, t-PA serving as a thrombolytic agent (alteplase, product of Mitsubishi Tanabe Pharma Corporation) was injected for 30 min to the femoral vein of each cerebral infarction rat model 1 hour or 4 hours after the injection of the thrombus (10 mg/kg, 10% bolus administration and 90% drip infusion).
Twenty-four hours after the injection of the thrombus, halothane was excessively administered to the rats for euthanasia which were then perfused with PBS, to thereby prepare an unfixed cerebral coronal section.
The cerebral coronal section was stained with TTC at 37° C. for 15 min in PBS (pH 7.4) containing a triphenyltetrazolium salt (TTC) at 2% by mass, and then scanned with a scanner (CanoScan™, product of Canon Co.).
The cerebral infarction and the volume of edema were calculated according to Swanson, R. A., et al. (J. Cereb. Blood Flow Metab. (1990) 10:290-293).
The combined administration of the t-PA and the anti-VEGF antibody was performed as described in Example 2. The effects of the combined administration of the t-PA and the anti-VEGF antibody four hours after the onset of cerebral infarction induced by injection of the thrombus were evaluated by measuring the cerebral infarct volume, edema volume, cerebral hemorrhage volume, and motor function scale of the TTC-stained cerebral coronal section prepared 24 hours after the onset of cerebral infarction induced by injection of the thrombus.
The cerebral infarct volume and the edema volume of the TTC-stained cerebral coronal section were calculated according to Swanson, R. A., et al. (J. Cereb. Blood Flow Metab. (1990) 10:290-293). The statistical significance was validated by ANOVA (analysis of variance), and post hoc comparisons were performed by the Tukey method.

VEGF = assay: Western blotting of VEGF expression in cerebral infarction rat model; format: in vivo; conditions: t-PA (with control antibody) four hours after onset of cerebral infarction (FIG. 3)
Protocol: In order to suppress or reduce concomitantly occurring cerebral hemorrhage and cerebral infarction exacerbation accompanied with the administration of the t-PA after an acute stage of cerebral infarction in human, 100 μg of rabbit anti-rat VEGF antibody IgG (RB-222, product of Lab Vision-NeoMarkers, hereinafter “anti-VEGF antibody”) was bolus administered together with the t-PA. In the control experiment, 100 μg of rabbit anti-human IgG (R5G10-048, product of OEM Concepts, hereinafter “control antibody”) was bolus administered together with the t-PA.
Using the total cell extract as a sample, western blotting was performed according to the method described in Shimohata, T., et al. (J. Cereb. Blood Flow Metab. (2007) 27:1463-1475).
The VEGF was detected using anti-VEGF antibody (SC-152, product of Santa Cruz Biotechnologies, dilution ratio: 1:200) as a primary antibody, and peroxidase-conjugated anti-rabbit IgG antibody (dilution ratio: 1:10,000) as a secondary antibody.
Also, in order to confirm that the amounts of the protein applied were uniform in all the samples, β-actin was detected by allowing anti-β-actin (SC-1616, product of Santa Cruz Biotechnologies, dilution ratio: 1:2,000) and the above secondary antibody to react on the blotting membrane from which the primary and secondary antibodies had been removed. […]

[4] = t-PA 10 mg/kg i.v. four hours after injection of thrombus, vs t-PA one hour after (FIG. 2C)

| Compound | cerebral hemorrhage volume (hemoglobin concentration) [1] | motor function scale (prognosis) ([2]; SU1498 20 mg/kg with t-PA four hours after onset, vs t-PA and DMSO, n=10 (FIG. 5D)) | cerebral infarct volume ([3]; SU1498 20 mg/kg in DMSO single bolus with t-PA four hours after onset, 24 h after onset, vs t-PA and DMSO, n=6 (FIG. 5A)) | edema volume ([3]; SU1498 20 mg/kg in DMSO single bolus with t-PA four hours after onset, 24 h after onset, vs t-PA and DMSO, n=6 (FIG. 5B)) | motor function scale (prognosis) ([2]; t-PA and control antibody four hours after onset, vs control antibody only (FIG. 4D)) | expression level of the VEGF (western blot) (VEGF) | area where cerebral infarction occurred [3, 4] | hemorrhage in the area where cerebral infarction occurred [3, 4] | area where cerebral infarction occurred ([3]; t-PA 10 mg/kg i.v. one hour after injection of thrombus, section 24 h after, vs animal receiving no t-PA (FIG. 2B)) |
| --- | --- | --- | --- | --- | --- | --- | --- | --- | --- |
| CC(C)c1cc(/C=C(\C#N)C(=O)NCCCc2ccccc2)cc(C(C)C)c1O [SU1498, (E)-3-(3,5-diisopropyl-4-hydroxyphenyl)-2-((3-phenyl-n-propyl)amino-carbonyl)acrylonitrile] | could reduce | better in prognosis | could not reduce | could not reduce |  |  |  |  |  |
| t-PA: t-PA serving as a thrombolytic agent (alteplase, product of Mitsubishi Tanabe Pharma Corporation) |  |  |  |  | worse in prognosis | considerably increase | enlargement | considerably observed | smaller |
